Results from PubChem BioAssay (NCI).
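Test compounds were applied to cells in 96-well plates for 48 hours at 5 doses. Abbreviation: GI50, concentration required for 50% inhibition of growth. TGI is the concentration that stops growth completely.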

How the values were obtained:
Assay in all cases: NCI anticancer screen, dose series, 48 h
[1] = system: UACC-257 melanoma
[2] = system: CAKI-1 renal
[3] = system: EKVX NSCLC
[4] = system: OVCAR-3 ovarian
[5] = system: M14 melanoma
[6] = system: ACHN renal
[7] = system: SK-MEL-28 melanoma
[8] = system: MDA-MB-435
[9] = system: DU-145 prostate
[10] = system: HOP-92 NSCLC
[11] = system: A549 NSCLC
[12] = system: IGROV1 ovarian
[13] = system: SK-OV-3 ovarian
[14] = system: MDA-MB-231 breast
[15] = system: NCI/ADR-RES ovarian
[16] = system: NCI-H522 lung
[17] = system: RPMI-8226 leukemia
[18] = system: HCC-2998 colon
[19] = system: HL-60(TB) leukemia
[20] = system: SF-539 CNS
[21] = system: OVCAR-8 ovarian
[22] = system: 786-0 renal
[23] = system: KM12 colon
[24] = system: HCT-116 colon
[25] = system: HS 578T breast
[26] = system: HT29 colon
[27] = system: SNB-19 CNS
[28] = system: COLO 205 colon

CC(=O)/C=C/C1=C(c2csc3ccccc23)c2ccccc2CC1
GI50 [1]: 20.8 µM
TGI [1]: 53.9 µM
GI50 [2]: 32.4 µM
TGI [2]: > 100 µM
GI50 [3]: 30.4 µM
TGI [3]: > 100 µM
GI50 [4]: 13.6 µM
TGI [4]: 43.3 µM
GI50 [5]: 16.5 µM
TGI [5]: 37.3 µM
GI50 [6]: 25.4 µM
TGI [6]: 88.3 µM
GI50 [7]: 16.9 µM
TGI [7]: 37.1 µM
GI50 [8]: 21.6 µM
TGI [8]: 70.7 µM
GI50 [9]: 29.4 µM
TGI [9]: > 100 µM
GI50 [10]: 19.5 µM
TGI [10]: 65.3 µM
GI50 [11]: 24 µM
TGI [11]: > 100 µM
GI50 [12]: 15.4 µM
TGI [12]: > 100 µM
GI50 [13]: 22.4 µM
TGI [13]: > 100 µM
GI50 [14]: 22.8 µM
TGI [14]: 69.5 µM
GI50 [15]: 21.8 µM
TGI [15]: 72.7 µM
GI50 [16]: 14.2 µM
TGI [16]: 67.9 µM
GI50 [17]: 8.69 µM
TGI [17]: 47.3 µM
GI50 [18]: 24.3 µM
TGI [18]: 49.6 µM
GI50 [19]: 13.6 µM
TGI [19]: 58.3 µM
GI50 [20]: 26.4 µM
TGI [20]: 71 µM
GI50 [21]: 30.4 µM
TGI [21]: > 100 µM
GI50 [22]: 35.7 µM
TGI [22]: > 100 µM
GI50 [23]: 14.1 µM
TGI [23]: 33.8 µM
GI50 [24]: 6.16 µM
TGI [24]: 95 µM
GI50 [25]: 35 µM
TGI [25]: > 100 µM
GI50 [26]: 21.3 µM
TGI [26]: > 100 µM
GI50 [27]: 32.5 µM
TGI [27]: > 100 µM
GI50 [28]: 20.5 µM
TGI [28]: 64.8 µM
